Test results reported in US4032654A, “Water-soluble, liquid concentrates of S-methyl-[(methyl-carbamoyl)oxy]-thioacetimidate and methyl N', N'-dimethyl-N-[(methyl-carbamoyl)oxy]-1-thiooxamimidate” (priority 1975, dated 1977).
Values after ≈ are worked out from the molar mass of the structure shown. Like-named read-outs stand apart in the source and are kept apart here.

Columns and labels:
[1] = 30% cyclohexanone, 30% cyclohexanol, 30% water, 10% methanol, -6° C.; for Solubility, both actives in solvent: Methomyl: with oxamyl
Method: Methomyl and Oxamyl Solubility In Cyclohexanone, Cyclohexanol, CH3 OH and H2 O at -6° C.
Methomyl and oxamyl were dissolved separately and in weight ratios of 1:1, 2:1 and 1:2.5 methomyl to oxamyl in a solvent system consisting of 30 wt. % cyclohexanone, 30 wt. % cyclohexanol, 30 wt. % water and 10 wt. % methanol. These solutions were equilibrated at -6° C. and seeded with methomyl and/or oxamyl crystals. The samples of liquid and solids remained at -6° C. until solid-liquid equilibrium was assured. A liquid sample was removed from each at -6° C. and assayed for methomyl and/or oxamyl. Solids were also isolated at -6° C., washed, dried and dissolved in CH3 OH to yield a 10% solution which was analyzed by TLC to ensure both methomyl and oxamyl crystals were present in the solids of the combination sample. All such solids contained both oxamyl and methomyl.
SOLUBILITY OF METHOMYL AND OXAMYL (2:1, 1:1 and 1:2.5 Wt.
RATIOS) IN CYCLOHEXANONE, CYCLOHEXANOL, CH3 OH AND H2 O

[2] = physchem; settings: -6° C.
Method: Methomyl and oxamyl were added to various methanol:water solvent systems ranging from 100 wt. % CH3 OH to 30 wt. % CH3 OH:70 wt. % H2 O. […] The samples were equilibrated at -6° C. in a constant temperature freezer after which they were seeded with methomyl and oxamyl crystals to ensure crystallization of both materials. After crystal-liquid equilibrium was assured, liquid was removed at -6° C. and assayed for methomyl and oxamyl. Solids were also removed at -6° C., washed with hexane and dried. The solids were then dissolved in methanol to yield a 10 wt. % solution. This solution was evaluated by thin layer chromatography (TLC) to ensure the solids consisted of both methomyl and oxamyl.
Solubility of Methomyl and Oxamyl 1:2.5 wt. ratio in CH3 OH:H2 O at -6° C.
Example 3 was repeated by dissolving methomyl and oxamyl in a 1:2.5 weight ratio in the same solvent systems under the same conditions.

[3] = physchem; settings: -6° C.; remark: listed apart in the source
Method: Solubility of Methomyl and Oxamyl (2:1 wt. ratio) in CH3 OH/H2 O at -6° C.
Methomyl and oxamyl were added to various methanol:water solvent systems ranging from 100 wt. % CH3 OH to 30 wt. % CH3 OH:70 wt. % H2 O. The methomyl and oxamyl were dissolved in a 2:1 weight ratio of 50 wt. % methomyl to 25 wt. % oxamyl in the solvent systems. The samples were equilibrated at -6° C. in a constant temperature freezer after which they were seeded with methomyl and oxamyl crystals to ensure crystallization of both materials. After crystal-liquid equilibrium was assured, liquid was removed at -6° C. and assayed for methomyl and oxamyl. Solids were also removed at -6° C., washed with hexane and dried. The solids were then dissolved in methanol to yield a 10 wt. % solution. This solution was evaluated by thin layer chromatography (TLC) to ensure the solids consisted of both methomyl and oxamyl.

[4] = 80:20 wt acetone/H2O, -6° C.; for Solubility, both actives in solvent: Methomyl: with oxamyl
Method: Solubility of Methomyl and Oxamyl 80:20 Wt. Ratio Acetone:H2 O
Methomyl and oxamyl were dissolved in a solvent system consisting of 80 wt. % acetone and 20 wt. % water separately and in 1:1, 2:1 and 1:2.5 wt. ratios of methomyl and oxamyl. These solutions were equilibrated at -6° C. and were seeded with methomyl and/or oxamyl. They remained at -6° C. until solid-liquid equilibrium was assured. Liquid was removed from each sample at -6° C. and assayed for methomyl and oxamyl. Solids were also removed at -6° C., washed, dried and dissolved in methanol to yield a 10 wt. % solution which was evaluated by TLC for oxamyl and methomyl.

[5] = 60% cyclohexanone, 10% methanol, 30% water, -6° C.; for Solubility, both actives in solvent: Methomyl: with oxamyl
Method: Methomyl and/or oxamyl were added to a solvent system consisting of 60% cyclohexanone, 10% methanol and 30% water at room temperature at a concentration higher than the solubility limit at -6° C. The methomyl and oxamyl were added together, at weight ratios of 2:1, 1:1 and 1:2.5. The solutions were cooled to -6° C. and seeded with methomyl and/or oxamyl to initiate crystallization. The solutions remained at -6° C. until equilibrium was assured. The supernatant liquid in each sample was analyzed for methomyl and oxamyl by liquid chromatography.

[6] = 40/60 ch3oh/h2o, Methomyl alone in solvent, alone
[7] = 50/50 ch3oh/h2o, Methomyl alone in solvent, alone
[8] = 60/40 ch3oh/h2o, Methomyl alone in solvent, alone
[9] = 70/30 ch3oh/h2o, Methomyl alone in solvent, alone
[10] = 80/20 ch3oh/h2o, Methomyl alone in solvent, alone
[11] = 90/10 ch3oh/h2o, Methomyl alone in solvent, alone

## CNC(=O)ON=C(C)SC [Methomyl]
[1]; alone
  Solubility, Methomyl alone in solvent: 24.5 gms/100 gms solvent
[1]; ratio 1:1
  Solubility, both actives in solvent: Methomyl: 39.6 gms/100 gms solvent
[1]; ratio 1:2.5
  Solubility, both actives in solvent: Methomyl: 40.2 gms/100 gms solvent
[1]; ratio 2:1
  Solubility, both actives in solvent: Methomyl: 42.7 gms/100 gms solvent
[2]; 30/70 ch3oh/h2o, both actives in solvent: Methomyl, with oxamyl, 1:2.5 wt., 30/70 CH3OH/H2O
  solubility: 156 mg/mL (≈ 962 mM)
[2]; [6]
  solubility: 62 mg/mL (≈ 382 mM)
[2]; 40/60 ch3oh/h2o, both actives in solvent: Methomyl, with oxamyl, 1:2.5 wt., 40/60 CH3OH/H2O
  solubility: 288 mg/mL (≈ 1780 mM)
[2]; [7]
  solubility: 105 mg/mL (≈ 647 mM)
[2]; 50/50 ch3oh/h2o, both actives in solvent: Methomyl, with oxamyl, 1:2.5 wt., 50/50 CH3OH/H2O
  solubility: 411 mg/mL (≈ 2530 mM)
[2]; [8]
  solubility: 155 mg/mL (≈ 956 mM)
[2]; 60/40 ch3oh/h2o, both actives in solvent: Methomyl, with oxamyl, 1:2.5 wt., 60/40 CH3OH/H2O
  solubility: 440 mg/mL (≈ 2710 mM)
[2]; [9]
  solubility: 206 mg/mL (≈ 1270 mM)
[2]; 70/30 ch3oh/h2o, both actives in solvent: Methomyl, with oxamyl, 1:2.5 wt., 70/30 CH3OH/H2O
  solubility: 220 mg/mL (≈ 1360 mM)
[2]; [10]
  solubility: 263 mg/mL (≈ 1620 mM)
[2]; 80/20 ch3oh/h2o, both actives in solvent: Methomyl, with oxamyl, 1:2.5 wt., 80/20 CH3OH/H2O
  solubility: 573 mg/mL (≈ 3530 mM)
[2]; [11]
  solubility: 299 mg/mL (≈ 1840 mM)
[2]; 90/10 ch3oh/h2o, both actives in solvent: Methomyl, with oxamyl, 1:2.5 wt., 90/10 CH3OH/H2O
  solubility: 699 mg/mL (≈ 4310 mM)
[2]; alone, 100/0 CH3OH/H2O
  Solubility, Methomyl alone in solvent: 30.7 gms/100 gms
[2]; with oxamyl, 1:2.5 wt., 100/0 CH3OH/H2O
  Solubility, both actives in solvent: Methomyl: 71.1 gms/100 gms
[3]; 30/70 ch3oh/h2o, both actives in solvent: Methomyl, with oxamyl, 2:1 wt., 30/70 CH3OH/H2O
  solubility: 241 mg/mL (≈ 1490 mM)
[3]; [6]
  solubility: 62 mg/mL (≈ 382 mM)
[3]; 40/60 ch3oh/h2o, both actives in solvent: Methomyl, with oxamyl, 2:1 wt., 40/60 CH3OH/H2O
  solubility: 422 mg/mL (≈ 2600 mM)
[3]; [7]
  solubility: 105 mg/mL (≈ 647 mM)
[3]; 50/50 ch3oh/h2o, both actives in solvent: Methomyl, with oxamyl, 2:1 wt., 50/50 CH3OH/H2O
  solubility: 461 mg/mL (≈ 2840 mM)
[3]; [8]
  solubility: 155 mg/mL (≈ 956 mM)
[3]; 60/40 ch3oh/h2o, both actives in solvent: Methomyl, with oxamyl, 2:1 wt., 60/40 CH3OH/H2O
  solubility: 552 mg/mL (≈ 3400 mM)
[3]; [9]
  solubility: 208 mg/mL (≈ 1280 mM)
[3]; 70/30 ch3oh/h2o, both actives in solvent: Methomyl, with oxamyl, 2:1 wt., 70/30 CH3OH/H2O
  solubility: 342 mg/mL (≈ 2110 mM)
[3]; [10]
  solubility: 263 mg/mL (≈ 1620 mM)
[3]; 80/20 ch3oh/h2o, both actives in solvent: Methomyl, with oxamyl, 2:1 wt., 80/20 CH3OH/H2O
  solubility: 598 mg/mL (≈ 3690 mM)
[3]; [11]
  solubility: 299 mg/mL (≈ 1840 mM)
[3]; 90/10 ch3oh/h2o, both actives in solvent: Methomyl, with oxamyl, 2:1 wt., 90/10 CH3OH/H2O
  solubility: 737 mg/mL (≈ 4540 mM)
[3]; alone, 100/0 CH3OH/H2O
  Solubility, Methomyl alone in solvent: 30.7 gms/100 gms
[3]; methanol:water solvent systems, 2:1 wt. ratio dissolved initially
  Solubility change when dissolved in combination: increased
[3]; with oxamyl, 2:1 wt., 100/0 CH3OH/H2O
  Solubility, both actives in solvent: Methomyl: 82.5 gms/100 gms
[4]; alone
  Solubility, Methomyl alone in solvent: 41.4 gms/100 gms solvent
[4]; ratio 1:1
  Solubility, both actives in solvent: Methomyl: 67.0 gms/100 gms solvent
[4]; ratio 1:2.5
  Solubility, both actives in solvent: Methomyl: 66.6 gms/100 gms solvent
[4]; ratio 2:1
  Solubility, both actives in solvent: Methomyl: 64.8 gms/100 gms solvent
[5]; alone
  Solubility, Methomyl alone in solvent: 29.5 gms/100 gms solvent
[5]; ratio 1:1
  Solubility, both actives in solvent: Methomyl: 46.2 gms/100 gms solvent
[5]; ratio 1:2.5
  Solubility, both actives in solvent: Methomyl: 66.6 gms/100 gms solvent
[5]; ratio 2:1
  Solubility, both actives in solvent: Methomyl: 64.8 gms/100 gms solvent
